{"source": "patent US8192962B2", "about": "“Processes for detecting toxic substances” (Daikin Industries, Ltd., priority 2001, dated 2012)", "system": "Energy system protein genes", "test": "DNA chip mRNA expression in yeast, energy system protein genes (Table 4)", "format": "cell-based, Saccharomyces cerevisiae S288C", "how_it_was_run": "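First, S288C yeast grown in YPD at 25° C. are dosed in log phase with one toxicant (growth-inhibiting, not lethal) for 2 h. Next, total RNA is extracted and poly(A) mRNA isolated and reverse-transcribed with Cy3/Cy5-dUTP. Finally, whole-genome chip fluorescence is read relative to unexposed cells.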"}
{"smiles": "Oc1cc(Cl)c(Cl)cc1Cl", "note": "[(6), 2,4,5-trichlorophenol]", "values": [{"measurement": "The level of expressed mRNA in the presence of chemical substance/The level of expressed mRNA in the absence of chemical substance", "setting": "yeast gene YJR048W", "result": 0.5}, {"measurement": "The level of expressed mRNA in the presence of chemical substance/The level of expressed mRNA in the absence of chemical substance", "setting": "yeast gene YJR121W, cells incubated two hours with the chemical substance", "result": 1.5}, {"measurement": "The level of expressed mRNA in the presence of chemical substance/The level of expressed mRNA in the absence of chemical substance", "setting": "yeast gene YJR155W", "result": 1.4}, {"measurement": "The level of expressed mRNA in the presence of chemical substance/The level of expressed mRNA in the absence of chemical substance", "setting": "yeast gene YKL016C, cells incubated two hours with the chemical substance", "result": 0.8}, {"measurement": "The level of expressed mRNA in the presence of chemical substance/The level of expressed mRNA in the absence of chemical substance", "setting": "yeast gene YKL035W", "result": 1.2}, {"measurement": "The level of expressed mRNA in the presence of chemical substance/The level of expressed mRNA in the absence of chemical substance", "setting": "yeast gene YKL060C, cells incubated two hours with the chemical substance", "result": 1.3}, {"measurement": "The level of expressed mRNA in the presence of chemical substance/The level of expressed mRNA in the absence of chemical substance", "setting": "yeast gene YKL141W, cells incubated two hours with the chemical substance", "result": 1.2}, {"measurement": "The level of expressed mRNA in the presence of chemical substance/The level of expressed mRNA in the absence of chemical substance", "setting": "yeast gene YKL148C, cells incubated two hours with the chemical substance", "result": 0.5}, {"measurement": "The level of expressed mRNA in the presence of chemical substance/The level of expressed mRNA in the absence of chemical substance", "setting": "yeast gene YKL152C", "result": 1.6}, {"measurement": "The level of expressed mRNA in the presence of chemical substance/The level of expressed mRNA in the absence of chemical substance", "setting": "yeast gene YKR009C, cells incubated two hours with the chemical substance", "result": 1.8}, {"measurement": "The level of expressed mRNA in the presence of chemical substance/The level of expressed mRNA in the absence of chemical substance", "setting": "yeast gene YKR058W, cells incubated two hours with the chemical substance, 25° C., YPD medium", "result": 1.4}, {"measurement": "The level of expressed mRNA in the presence of chemical substance/The level of expressed mRNA in the absence of chemical substance", "setting": "yeast gene YKR097W", "result": 1.7}, {"measurement": "The level of expressed mRNA in the presence of chemical substance/The level of expressed mRNA in the absence of chemical substance", "setting": "yeast gene YLL041C, cells incubated two hours with the chemical substance", "result": 1.2}, {"measurement": "The level of expressed mRNA in the presence of chemical substance/The level of expressed mRNA in the absence of chemical substance", "setting": "yeast gene YLR038C, cells incubated two hours with the chemical substance", "result": 1.2}, {"measurement": "The level of expressed mRNA in the presence of chemical substance/The level of expressed mRNA in the absence of chemical substance", "setting": "yeast gene YLR044C, cells incubated two hours with the chemical substance", "result": 1.5}, {"measurement": "The level of expressed mRNA in the presence of chemical substance/The level of expressed mRNA in the absence of chemical substance", "setting": "yeast gene YLR134W, cells incubated two hours with the chemical substance", "result": 2.5}, {"measurement": "The level of expressed mRNA in the presence of chemical substance/The level of expressed mRNA in the absence of chemical substance", "setting": "yeast gene YLR258W, cells incubated two hours with the chemical substance", "result": 1.8}, {"measurement": "The level of expressed mRNA in the presence of chemical substance/The level of expressed mRNA in the absence of chemical substance", "setting": "yeast gene YLR284C, cells incubated two hours with the chemical substance", "result": 0.9}, {"measurement": "The level of expressed mRNA in the presence of chemical substance/The level of expressed mRNA in the absence of chemical substance", "setting": "yeast gene YLR295C, cells incubated two hours with the chemical substance, 25° C., YPD medium", "result": 1.1}, {"measurement": "The level of expressed mRNA in the presence of chemical substance/The level of expressed mRNA in the absence of chemical substance", "setting": "yeast gene YLR304C, cells incubated two hours with the chemical substance", "result": 1.9}, {"measurement": "The level of expressed mRNA in the presence of chemical substance/The level of expressed mRNA in the absence of chemical substance", "setting": "yeast gene YLR345W", "result": 1.6}, {"measurement": "The level of expressed mRNA in the presence of chemical substance/The level of expressed mRNA in the absence of chemical substance", "setting": "yeast gene YLR354C, cells incubated two hours with the chemical substance", "result": 1.5}, {"measurement": "The level of expressed mRNA in the presence of chemical substance/The level of expressed mRNA in the absence of chemical substance", "setting": "yeast gene YLR377C, cells incubated two hours with the chemical substance", "result": 0.7}, {"measurement": "The level of expressed mRNA in the presence of chemical substance/The level of expressed mRNA in the absence of chemical substance", "setting": "yeast gene YLR395C, cells incubated two hours with the chemical substance", "result": 0.4}, {"measurement": "The level of expressed mRNA in the presence of chemical substance/The level of expressed mRNA in the absence of chemical substance", "setting": "yeast gene YML054C", "result": 1.8}, {"measurement": "The level of expressed mRNA in the presence of chemical substance/The level of expressed mRNA in the absence of chemical substance", "setting": "yeast gene YML087C", "result": 0.9}, {"measurement": "The level of expressed mRNA in the presence of chemical substance/The level of expressed mRNA in the absence of chemical substance", "setting": "yeast gene YML100W", "result": 2.8}, {"measurement": "The level of expressed mRNA in the presence of chemical substance/The level of expressed mRNA in the absence of chemical substance", "setting": "yeast gene YML120C, cells incubated two hours with the chemical substance", "result": 0.6}, {"measurement": "The level of expressed mRNA in the presence of chemical substance/The level of expressed mRNA in the absence of chemical substance", "setting": "yeast gene YML125C", "result": 1.3}, {"measurement": "The level of expressed mRNA in the presence of chemical substance/The level of expressed mRNA in the absence of chemical substance", "setting": "yeast gene YML129C, cells incubated two hours with the chemical substance", "result": 1.7}, {"measurement": "The level of expressed mRNA in the presence of chemical substance/The level of expressed mRNA in the absence of chemical substance", "setting": "yeast gene YMR073C, cells incubated two hours with the chemical substance", "result": 0.9}, {"measurement": "The level of expressed mRNA in the presence of chemical substance/The level of expressed mRNA in the absence of chemical substance", "setting": "yeast gene YMR089C", "result": 1.2}, {"measurement": "The level of expressed mRNA in the presence of chemical substance/The level of expressed mRNA in the absence of chemical substance", "setting": "yeast gene YMR105C", "result": 2.8}, {"measurement": "The level of expressed mRNA in the presence of chemical substance/The level of expressed mRNA in the absence of chemical substance", "setting": "yeast gene YMR118C", "result": 2.0}, {"measurement": "The level of expressed mRNA in the presence of chemical substance/The level of expressed mRNA in the absence of chemical substance", "setting": "yeast gene YMR205C, cells incubated two hours with the chemical substance", "result": 1.2}, {"measurement": "The level of expressed mRNA in the presence of chemical substance/The level of expressed mRNA in the absence of chemical substance", "setting": "yeast gene YMR261C, cells incubated two hours with the chemical substance", "result": 0.6}, {"measurement": "The level of expressed mRNA in the presence of chemical substance/The level of expressed mRNA in the absence of chemical substance", "setting": "yeast gene YMR267W, cells incubated two hours with the chemical substance, 25° C., YPD medium", "result": 1.4}, {"measurement": "The level of expressed mRNA in the presence of chemical substance/The level of expressed mRNA in the absence of chemical substance", "setting": "yeast gene YMR323W, cells incubated two hours with the chemical substance", "result": 0.4}, {"measurement": "The level of expressed mRNA in the presence of chemical substance/The level of expressed mRNA in the absence of chemical substance", "setting": "yeast gene YNL071W", "result": 1.3}, {"measurement": "The level of expressed mRNA in the presence of chemical substance/The level of expressed mRNA in the absence of chemical substance", "setting": "yeast gene YNL202W, cells incubated two hours with the chemical substance", "result": 2.0}, {"measurement": "The level of expressed mRNA in the presence of chemical substance/The level of expressed mRNA in the absence of chemical substance", "setting": "yeast gene YNL237W", "result": 4.6}, {"measurement": "The level of expressed mRNA in the presence of chemical substance/The level of expressed mRNA in the absence of chemical substance", "setting": "yeast gene YNL241C", "result": 0.9}, {"measurement": "The level of expressed mRNA in the presence of chemical substance/The level of expressed mRNA in the absence of chemical substance", "setting": "yeast gene YNL331C", "result": 1.8}, {"measurement": "The level of expressed mRNA in the presence of chemical substance/The level of expressed mRNA in the absence of chemical substance", "setting": "yeast gene YOL086C, cells incubated two hours with the chemical substance", "result": 1.7}, {"measurement": "The level of expressed mRNA in the presence of chemical substance/The level of expressed mRNA in the absence of chemical substance", "setting": "yeast gene YOL165C", "result": 1.7}, {"measurement": "The level of expressed mRNA in the presence of chemical substance/The level of expressed mRNA in the absence of chemical substance", "setting": "yeast gene YOR142W, cells incubated two hours with the chemical substance", "result": 1.6}, {"measurement": "The level of expressed mRNA in the presence of chemical substance/The level of expressed mRNA in the absence of chemical substance", "setting": "yeast gene YOR178C, cells incubated two hours with the chemical substance", "result": 2.7}, {"measurement": "The level of expressed mRNA in the presence of chemical substance/The level of expressed mRNA in the absence of chemical substance", "setting": "yeast gene YOR388C, cells incubated two hours with the chemical substance", "result": 1.4}, {"measurement": "The level of expressed mRNA in the presence of chemical substance/The level of expressed mRNA in the absence of chemical substance", "setting": "yeast gene YPL031C, cells incubated two hours with the chemical substance", "result": 1.8}, {"measurement": "The level of expressed mRNA in the presence of chemical substance/The level of expressed mRNA in the absence of chemical substance", "setting": "yeast gene YPL061W, cells incubated two hours with the chemical substance", "result": 1.7}, {"measurement": "The level of expressed mRNA in the presence of chemical substance/The level of expressed mRNA in the absence of chemical substance", "setting": "yeast gene YPL088W", "result": 7.1}, {"measurement": "The level of expressed mRNA in the presence of chemical substance/The level of expressed mRNA in the absence of chemical substance", "setting": "yeast gene YPL171C", "result": 1.3}, {"measurement": "The level of expressed mRNA in the presence of chemical substance/The level of expressed mRNA in the absence of chemical substance", "setting": "yeast gene YPL240C", "result": 1.2}, {"measurement": "The level of expressed mRNA in the presence of chemical substance/The level of expressed mRNA in the absence of chemical substance", "setting": "yeast gene YPL262W, cells incubated two hours with the chemical substance", "result": 1.6}, {"measurement": "The level of expressed mRNA in the presence of chemical substance/The level of expressed mRNA in the absence of chemical substance", "setting": "yeast gene YPL275W, cells incubated two hours with the chemical substance", "result": 1.0}, {"measurement": "The level of expressed mRNA in the presence of chemical substance/The level of expressed mRNA in the absence of chemical substance", "setting": "yeast gene YPL276W, cells incubated two hours with the chemical substance", "result": 1.1}, {"measurement": "The level of expressed mRNA in the presence of chemical substance/The level of expressed mRNA in the absence of chemical substance", "setting": "yeast gene YPR048W, cells incubated two hours with the chemical substance", "result": 0.6}, {"measurement": "The level of expressed mRNA in the presence of chemical substance/The level of expressed mRNA in the absence of chemical substance", "setting": "yeast gene YPR184W, cells incubated two hours with the chemical substance", "result": 1.5}]}
